Each structure is given as a SMILES string.

One may read the IC50 as the concentration that inhibits the measured activity by half. The low end stands for higher potency, the high end for lower potency.

Chain of human NaV1.8 (Q9Y5Y9 whole entry): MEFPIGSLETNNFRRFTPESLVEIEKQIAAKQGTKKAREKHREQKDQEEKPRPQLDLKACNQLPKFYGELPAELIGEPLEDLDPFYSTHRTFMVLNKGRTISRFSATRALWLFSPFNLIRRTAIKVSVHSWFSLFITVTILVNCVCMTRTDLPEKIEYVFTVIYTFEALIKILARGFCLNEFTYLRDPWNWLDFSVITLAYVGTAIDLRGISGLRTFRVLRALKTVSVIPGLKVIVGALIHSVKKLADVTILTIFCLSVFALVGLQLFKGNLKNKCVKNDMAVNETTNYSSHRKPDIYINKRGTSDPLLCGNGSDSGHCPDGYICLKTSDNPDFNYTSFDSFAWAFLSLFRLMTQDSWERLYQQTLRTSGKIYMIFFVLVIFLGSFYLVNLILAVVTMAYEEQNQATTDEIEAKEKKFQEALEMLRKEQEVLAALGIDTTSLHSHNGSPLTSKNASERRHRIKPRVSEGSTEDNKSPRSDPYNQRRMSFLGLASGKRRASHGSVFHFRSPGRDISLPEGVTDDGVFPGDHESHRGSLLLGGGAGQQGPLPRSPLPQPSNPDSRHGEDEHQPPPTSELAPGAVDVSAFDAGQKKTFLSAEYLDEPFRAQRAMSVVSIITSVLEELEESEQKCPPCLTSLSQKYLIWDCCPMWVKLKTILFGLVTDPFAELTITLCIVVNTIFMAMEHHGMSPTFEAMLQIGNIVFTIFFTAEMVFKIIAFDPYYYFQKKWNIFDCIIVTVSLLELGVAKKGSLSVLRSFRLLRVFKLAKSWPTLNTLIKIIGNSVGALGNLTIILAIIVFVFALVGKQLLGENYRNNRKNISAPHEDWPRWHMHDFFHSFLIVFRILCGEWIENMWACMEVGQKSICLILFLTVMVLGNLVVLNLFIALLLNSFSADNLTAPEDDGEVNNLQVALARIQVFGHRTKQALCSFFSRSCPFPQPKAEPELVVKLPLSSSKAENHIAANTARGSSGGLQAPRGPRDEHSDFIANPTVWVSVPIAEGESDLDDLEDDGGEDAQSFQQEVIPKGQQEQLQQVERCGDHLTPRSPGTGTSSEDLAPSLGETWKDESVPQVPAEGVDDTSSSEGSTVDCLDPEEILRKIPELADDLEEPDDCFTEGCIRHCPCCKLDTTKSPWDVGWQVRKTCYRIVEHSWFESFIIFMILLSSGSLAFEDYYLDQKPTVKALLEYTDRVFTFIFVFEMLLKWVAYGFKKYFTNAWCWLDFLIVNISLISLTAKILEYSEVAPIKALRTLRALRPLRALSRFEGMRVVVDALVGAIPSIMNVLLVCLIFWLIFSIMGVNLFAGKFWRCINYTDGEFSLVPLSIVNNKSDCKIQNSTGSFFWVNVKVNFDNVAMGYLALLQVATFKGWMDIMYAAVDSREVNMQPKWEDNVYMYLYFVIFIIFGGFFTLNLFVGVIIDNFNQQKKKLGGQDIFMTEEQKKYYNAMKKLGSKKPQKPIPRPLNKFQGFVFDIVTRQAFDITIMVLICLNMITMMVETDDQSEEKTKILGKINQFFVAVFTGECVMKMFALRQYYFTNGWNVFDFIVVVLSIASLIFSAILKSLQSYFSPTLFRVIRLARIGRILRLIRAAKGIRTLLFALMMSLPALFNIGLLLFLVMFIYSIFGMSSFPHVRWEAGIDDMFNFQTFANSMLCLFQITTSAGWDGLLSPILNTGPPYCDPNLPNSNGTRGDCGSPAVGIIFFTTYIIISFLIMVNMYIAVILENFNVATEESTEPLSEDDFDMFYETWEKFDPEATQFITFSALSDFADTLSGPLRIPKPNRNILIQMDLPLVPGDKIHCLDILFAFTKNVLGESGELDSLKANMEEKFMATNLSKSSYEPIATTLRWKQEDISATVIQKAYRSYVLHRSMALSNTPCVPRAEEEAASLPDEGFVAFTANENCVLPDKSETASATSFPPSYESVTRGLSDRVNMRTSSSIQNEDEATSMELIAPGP

The test addresses human NaV1.8 (Homo sapiens (Human), UniProt Q9Y5Y9). Nature of the test: Nav1.8 Qube automated patch-clamp assay. It is filed as cell-based. The note with it: human NaV1.8 stably expressed in HEK 293 cells; automated 384-well patch-clamp; resting or inactivated state not specified. The procedure: Compounds were tested on human NaV1.8 and NaV1.5 channels stably expressed in human embryo kidney (HEK) 293 cells. Sodium current measurements on Qube® were conducted as follows: automated 384-well patch-clamp assays on the Qube® platform (Sophion Biosciences) were used to measure the inhibition of sodium flow through human NaV1.8 and NaV1.5 channels. Whole-cell voltage-clamp recordings were performed in QChips® (Sophion Biosciences) at room temperature. NaV1.8 current measurements on Qube® were obtained as follows: NaV1.8 currents were elicited with a 10 second 1 Hertz (Hz) pulse train from a holding potential of −90 millivolts (mV), delivered to the cells once per minute in the control condition (DMSO only) and after compound addition. The 1 hertz pulse train stimulation consisted of ten test pulses to 10 millivolt (mV) for 20 milliseconds (ms), each of which was followed by a 980 millisecond repolarization to −67 millivolts. At the end of the 10 second pulse train stimulation, a 5 second hyperpolarization step to −100 millivolt (mV) was used to recover NaV1.8 from fast inactivation. The peak currents elicited by the 1st and 10th test pulses were used to determine IC50 values for resting inhibition and inactivated state inhibition. NaV1.5 current measurements on Qube® were obtained as follows: NaV1.5 currents were elicited with a 20 second 3 Hertz pulse train in the control condition (DMSO only) and after compound addition. The pulse train consisted of sixty 20 millisecond test pulses to 0 millivolt from a holding potential of −80 millivolt (mV). The average peak currents elicited by the last 3 test pulses were used to determine IC50 values for NaV1.5 inhibition.
The following buffers were used for the Qube® recordings: External buffer for NaV1.8 Qube® recording: 150 NaCl, 2 CaCl2, 5 KCl, 1 Mg Cl2, 10 HEPES, 12 Dextrose; External buffer for Qube® NaV1.5 recording: 120 N-Methyl-D-Glucamine, 40 NaCl, 1 KCl, 2.7 CaCl2, 5 HEPES, 0.5 MgCl2; and Internal buffer for Qube® recording: 120 CsF, 30 CsCl, 10 EGTA, 5 HEPES, 5 NaF, 2 MgCl2.
For all Qube® experiments offline analysis was used to determine percent inhibition as a function of drug concentration. IC50 values were determined by fitting to the Hill equation.
(The patch-clamp technique gives a direct electrical read-out from membranes.)
Consider `O=C1NC[C@@H](C(=O)NC(c2ccc(F)c(Cl)c2)c2ccn(CC(F)(F)F)n2)N1` (single isomer, unassigned) [Example 28A, (4S)-N-{(R or S)-(3-chloro-4-fluorophenyl)[1-(2,2,2-trifluoroethyl)-1H-pyrazol-3-yl]methyl}-2-oxoimidazolidine-4-carboxamide], for which the 50% inhibitory concentration (IC50) is 633 nM.
For `O=C1NC[C@@H](C(=O)NC(c2ccc(OC(F)(F)F)cc2)c2ccc(Cl)c(C3CC3)n2)N1` (single isomer, unassigned) [Example 40A, (S)-N-((R or S)-(5-chloro-6-cyclopropylpyridin-2-yl)(4-(trifluoromethoxy)phenyl)methyl)-2-oxoimidazolidine-4-carboxamide], inhibition was half-maximal at 21 nM (IC50).
The same measure for `O=C1NC[C@@H](C(=O)NC(c2ccc(F)c(Cl)c2F)C2CCCCN2CC(F)(F)F)N1` (single isomer, unassigned) [Example 58D, (S)-N-((R or S)-(3-chloro-2,4-difluorophenyl) ((R or S)-1-(2,2,2-trifluoroethyl)piperidin-2-yl)methyl)-2-oxoimidazolidine-4-carboxamide]: 787 nM; for `Cc1nc2cc(C(NC(=O)[C@@H]3CNC(=O)N3)c3ccc(F)c(Cl)c3)ccc2s1` (single isomer, unassigned) [Example 66B, (S)—N—((R or S)-(3-chloro-4-fluorophenyl)(2-methylbenzo[d]thiazol-5-yl)methyl)-2-oxoimidazolidine-4-carboxamide]: 3.8 nM; for `O=C1NC[C@@H](C(=O)NC(c2ccc(F)c(Cl)c2F)C2COC(C(F)(F)F)C2)N1` (single isomer, unassigned) [Example 79H, (S)-N-((R or S)-(3-chloro-2,4-difluoro-phenyl)((cis or trans)-5-(trifluoromethyl)tetrahydrofuran-3-yl)methyl)-2-oxoimidazolidine-4-carboxamide]: 3860 nM.
The molecule `Cn1nc(C(F)(F)F)cc1C(NC(=O)[C@@H]1CNC(=O)N1)c1ccc(F)c(Cl)c1` (single isomer, unassigned) [Example 31B, (S)-N-((R or S)-(3-chloro-4-fluorophenyl)(1-methyl-3-(tri-fluoromethyl)-1H-pyrazol-5-yl)methyl)-2-oxoimidazolidine-4-carboxamide] showed an IC50 of 268 nM.
The same measure for `O=C1NC[C@@H](C(=O)NC(c2ccc(F)c(Cl)c2F)C2CCCCN2CC(F)(F)F)N1` (single isomer, unassigned) [Example 58B, (S)-N-((R or S)-(3-chloro-2,4-difluorophenyl) ((R or S)-1-(2,2,2-trifluoroethyl)piperidin-2-yl)methyl)-2-oxoimidazolidine-4-carboxamide]: 35 nM; for `O=C1NC[C@@H](C(=O)NC(c2ccc(OC(F)(F)F)cc2)c2ccc(F)c(C(F)(F)F)n2)N1` (single isomer, unassigned) [Example 7B, (S)—N—((R or S)-(5-fluoro-6-(trifluoromethyl)pyridin-2-yl)(4-(trifluoromethoxy)phenyl)methyl)-2-oxo-imidazolidine-4-carboxamide]: 44 nM.
The figure for `O=C1NC[C@@H](C(=O)NC(c2ccc(Cl)cc2)c2ncc(Cl)c(C(F)(F)F)n2)N1` (stereo partly drawn) [Example 6, (S)—N-((5-chloro-4-(trifluoromethyl)pyrimidin-2-yl)(4-chlorophenyl)methyl)-2-oxoimidazolidine-4-carboxamide] is 28 nM; for `O=C1NC[C@@H](C(=O)NC(c2ccc(F)c(Cl)c2F)C2COC(C(F)(F)F)C2)N1` (single isomer, unassigned) [Example 79C, (S)-N-((R or S)-(3-chloro-2,4-difluoro-phenyl)((cis or trans)-5-(trifluoromethyl)tetrahydrofuran-3-yl)methyl)-2-oxoimidazolidine-4-carboxamide] it is 886 nM.

Source of the values: patent US20230312528A1, “2-OXO-IMIDAZOLIDINE-4-CARBOXAMIDES AS NAV1.8 INHIBITORS” (Merck Sharp & Dohme LLC, priority 2020, published 2023).
